Data on three molecules can be found in patent US20240383881A1, “SYNTHETIC COMPOUND OF MYRICETIN AND NOBILETIN, AND PREPARATION METHOD THEREFOR” (The Second People's Hospital of Shenzhen (Shenzhen …, priority 2023, published 2024).

The structures appear in SMILES notation. pIC50: −log10 of the molar value.

In one test the test system is mice with hyperuricemia. Nature of the test: yeast extract feed-induced hyperuricemia model in KM mice. It counts as in vivo, KunMing (KM) mice. Particulars: 30 mg/kg intragastric daily for 9 weeks; for serum UA levels vs model group: P<0.001, P<0.001, P<0.01; for serum creatinine level vs model group / serum urea nitrogen level vs model group: P<0.001; for serum urea nitrogen level vs model group: FIG. 2B; for liver index vs model group: FIG. 3B, P<0.001, P<0.05, P<0.01; for renal pathological morphology (HE staining): renal tissue, x200; for kidney index vs model group: FIG. 3A, P<0.05 (synthetic compound), P<0.001 (nobiletin). Here is the method:
Specific pathogen free (SPF) grade KunMing (KM) mice, male, aged 5-6 weeks, weighing 22-25 g, are provided by Medical Experimental Animal Center of Guangdong Province with an animal qualification certificate number: SCXK (Yue) 2022-0002. The mice are raised in plastic cages, with free diet and drinking water. The indoor temperature of the plastic cages is (22±2)° C., and a relative humidity is maintained at 55%±5%. The lights are turned on and turned off for 12 hours, respectively. After quarantine and adaptation for one week, relevant experiments are conducted. The experimental plan is reviewed and approved by the Animal Welfare Ethics Committee of Zhongke Industry Holdings (Shenzhen) Co., Ltd. (application number: 20220082), and the operation and process of animal experiments follow the “Guidelines for the use of experimental animals in teaching” of the Chinese Society of Experimental Animals. Customized dietary feeds: 15% of yeast extract feeds, in compliance with regulations of GB13078 and GB14924.2, are provided by Jiangsu Synergy Pharmaceutical Biotechnology Co., Ltd. Production license: Su Si Zheng (2019) 01008. After 2 weeks of adaptive feeding in the plastic cages, the SPF grade KM mice are randomly divided into five groups: normal group (Control), model group (Model), synthetic compound group (PJW), myricetin group (Myricetin), and nobiletin group (Nobiletin). The dosage of each individual test medicine group is 30 milligrams per kilogram (mg/kg), and the medicines are dissolved in a 0.5% carboxymethyl cellulose sodium solution with a gavage volume of 10 milliliters per kilogram (mL/kg). Except for the normal group fed with basic feed, the other groups are fed with 15% of the yeast extract feeds for modeling. The normal group and the model group are intragastrically administered an equal amount of physiological saline daily, and the other groups are intragastrically administered with the corresponding medicine daily for 9 weeks. At the end of the experiment, that is, at the end of the 9th week of administration, the KM mice are fasted for 12 hours, then the KM mice are anesthetized with the isoflurane to take off the eyeballs from the KM mice for blood collection, followed by placing the collected blood to stand in the room temperature for 1 hour. After the standing, the blood is centrifuged at 3500 revolutions per minute (rpm/min) for 15 minutes to obtain centrifuged solutions, respectively, then serums of the centrifuged solution are separated to detect the levels of the uric acid, the creatinine, the urea nitrogen. The KM mice are sacrificed by dislocation of cervical vertebra after collecting blood, livers and kidneys are dissected from the KM mice and weighed to calculate indexes of the livers and the kidneys, an organ index of the formula is as follows: organ index=organ weight (g)/body mass (g)×100%. Then the livers and the kidneys are quickly packed, one portion of the packed sample is fixed with 4% paraformaldehyde solution for HE staining, and the other portion of the packed sample is stored at −80° C. in a refrigerator for later use. The renal tissues fixed with 4% paraformaldehyde from the kidneys are taken to be dehydrated with ethanol, embedded in paraffin, and sliced. After staining with hematoxylin-eosin, the pathological changes of renal tissues are observed under an upright optical microscope. All data are statistically analyzed using a GraphPad Prism 7.00 software, and the data are presented as a mean value±a standard error (standard deviation±standard error of the mean abbreviated as SD±SEM). Multiple group comparisons are conducted using a one-way Analysis of Variance (ANOVA), and pairwise comparisons between groups are conducted using a Dunnett's test. P<0.05 indicates a statistically significant difference.

The conditions of test [1]: patients with hyperuricemia; Wang Yong et al. 2010; cited from earlier work.
Test [2] addresses T1, organic anion transporter 4 (OAT4) (Homo sapiens, UniProt Q9NSA0).
T1 sequence (Q9NSA0 1-550): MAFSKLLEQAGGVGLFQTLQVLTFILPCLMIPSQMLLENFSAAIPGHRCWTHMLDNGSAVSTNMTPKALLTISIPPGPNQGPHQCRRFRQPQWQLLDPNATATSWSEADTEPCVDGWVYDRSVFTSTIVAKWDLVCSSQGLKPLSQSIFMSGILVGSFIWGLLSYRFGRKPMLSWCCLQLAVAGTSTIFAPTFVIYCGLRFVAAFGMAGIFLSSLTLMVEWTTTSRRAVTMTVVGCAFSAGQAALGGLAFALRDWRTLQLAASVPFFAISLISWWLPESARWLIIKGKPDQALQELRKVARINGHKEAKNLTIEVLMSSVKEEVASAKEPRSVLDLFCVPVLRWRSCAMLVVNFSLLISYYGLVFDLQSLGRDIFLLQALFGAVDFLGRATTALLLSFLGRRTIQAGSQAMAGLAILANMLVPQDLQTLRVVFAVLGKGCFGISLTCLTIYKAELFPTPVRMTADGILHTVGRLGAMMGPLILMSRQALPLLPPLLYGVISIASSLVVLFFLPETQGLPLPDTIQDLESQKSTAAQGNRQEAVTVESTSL
Particulars: OAT4 overexpressed monoclonal cell line; Wang Ze et al. 2019; read-out: half-maximal inhibitory concentration (IC50) on OAT4; cited from earlier work.

With `O=c1c(O)c(-c2cc(O)c(O)c(O)c2)oc2cc(O)cc(O)c12` [myricetin], the “serum UA levels vs model group” value in the test on mice with hyperuricemia (FIG. 1) was “significantly reduced”. The “serum creatinine level vs model group” value in the test with mice with hyperuricemia (FIG. 2A) is on record as “significantly reduced”. Also, in the test on mice with hyperuricemia, the “serum urea nitrogen level vs model group” value is “significantly reduced” and the “liver index vs model group” value is “significantly reduced”. For the same molecule, the “renal pathological morphology (HE staining)” value in the test with mice with hyperuricemia (FIG. 4) is “improve renal injury”. Also, the “serum uric acid (UA) levels in patients” value in test [1] is given as “significantly reduce”.

As to `COc1ccc(-c2cc(=O)c3c(OC)c(OC)c(OC)c(OC)c3o2)cc1OC` [nobiletin], the pIC50 in test [2] was 6.25. Moreover, the “serum UA levels vs model group” value with mice with hyperuricemia (FIG. 1) is “significantly reduced”. Also, the “serum creatinine level vs model group” value in the test with mice with hyperuricemia (FIG. 2A) is listed as “significantly reduced”. Besides, in the test on mice with hyperuricemia, the “serum urea nitrogen level vs model group” value is on record as “significantly reduced”, the “kidney index vs model group” value is on record as “significantly reduced” and the “liver index vs model group” value is “significantly reduced”. The “renal pathological morphology (HE staining)” value with mice with hyperuricemia (FIG. 4) was “improve renal injury”.

As to `COc1cc(OC)c2c(=O)c(OCCCC(=O)Oc3c(-c4ccc(OC)c(OC)c4)oc4c(OC)c(OC)c(OC)c(OC)c4c3=O)c(-c3cc(OC)c(OC)c(OC)c3)oc2c1` [synthetic compound], in the test on mice with hyperuricemia (FIG. 1), the “serum UA effect compared with monomer groups” value is reported as “better than that of each monomer group” and the “serum UA levels vs model group” value is “significantly reduced”. Also, in the test on mice with hyperuricemia (FIG. 2A), the “effect on creatinine compared with monomer medicines” value is “better than that of monomer medicines” and the “serum creatinine level vs model group” value is reported as “significantly reduced”. Moreover, in the test with mice with hyperuricemia, the “serum urea nitrogen level vs model group” value was “significantly reduced”, the “kidney index vs model group” value is “significantly reduced” and the “liver index vs model group” value is on record as “significantly reduced”. The “organ index effect compared with monomer groups” value with mice with hyperuricemia (FIGS. 3A-3B) is recorded as “better than that of each monomer group”. Further, the “improvement of renal pathological morphology compared with monomer medicines” value in the test on mice with hyperuricemia (HE staining, FIG. 4) is on record as “better than that of monomer medicines”. For the same molecule, the “renal pathological morphology (HE staining)” value in the test with mice with hyperuricemia (FIG. 4) is reported as “improve renal injury”.
